{
  "source": "patent US8598221B2",
  "about": "(priority 2009, dated 2013)",
  "system": "cramps induced by acetic acid in the mouse",
  "experiment": "animal or person",
  "format": "in vivo",
  "protocol": "The analgesic effect of a nefopam-celecoxib combination was investigated in the model of abdominal cramps induced in the mouse by intraperitoneal administration of acetic acid. This model of pain induced by a chemical substance corresponds to inflammatory, visceral and acute pain.\nMale CD1 mice (bred: C. River) weighing between 25 and 30 grams are used after an acclimatization for at least 7 days in the animal house (temp.=22±2; humidity=50±20%; food SAFE “A04”; nyctohemeral cycle: 12 h/12 h (light: 7 h/19 h−darkness: 19 h/7 h)). • 2. Protocol\nOn the day of the experiment, the non-fasting mice are weighed, marked and distributed at random in batches of 10. The acetic acid solution (Sigma) is prepared at 0.6%, or 60 mg of acetic acid in 10 ml of 0.9% NaCl.\nAt t=0, the mouse receives celecoxib by the oral route. At t=30 min, the mouse is administered nefopam or its liquid vehicle by the subcutaneous route. At t=60 min, the acetic acid is injected intraperitoneally (0.1 ml/10 g).\nThe number of abdominal cramps is counted from 5 to 20 minutes after injection of acetic acid. Frank abdominal cramps characterized by stretching of the hindpaws and/or hollowing of the flanks with twisting are regarded as positive. • 3. Products\nNefopam hydrochloride (Biocodex, batch 38) (called simply nefopam hereunder) is dissolved in distilled water or 0.9% NaCl. Celecoxib (Celebrex® capsules) is suspended in Tween 80 at 1%. • 4. Statistical Analysis\nThe test used is an analysis of variance for 3 or more groups and a Student t-test for 2 groups. Then the treated group or groups that differ from the control group are determined. […] At least 10 mice are used for each dose, and at least 3 doses are used for determining the dose-response curve. The dose that produces 50% of antinociceptive effect (50% decrease in number of cramps) is calculated by a standard linear regression analysis of the dose-response curve.\nThe interaction is evaluated by an isobolographic analysis of the co-administration of a combination of doses at fixed ratio according to Tallarida (2000) op. cit., Tallarida et al. (1989) Life Sci. 45:947-961 and Tallarida et al. (1997) Life Sci. 61:PL417-PL425. The isobologram is constructed by joining the ED50 of celecoxib with that of nefopam to obtain the line of additivity. The ED50 of the combination is determined by linear regression analysis of the dose-response curve, and it is compared by a t-test with a theoretical additive ED50 obtained using the PharmToolsPro software.",
  "data": [
    {"compound": "Cc1ccc(-c2cc(C(F)(F)F)nn2-c2ccc(S(N)(=O)=O)cc2)cc1", "note": "[Celecoxib, celecoxib]", "values": [
      {"measurement": "ED50", "setting": "Mus musculus, read-out: ED50 (dose producing 50% decrease in number of cramps)", "value": "40.2 ± 8.06", "unit": "mg/kg"},
      {"measurement": "% variation of number of cramps", "setting": "celecoxib 10 mg/kg oral", "value": "−9", "unit": "%"},
      {"measurement": "Number of cramps (mean ± SEM)", "setting": "celecoxib 10 mg/kg oral", "value": "28.2 ± 2.9"},
      {"measurement": "% variation of number of cramps", "setting": "celecoxib 20 mg/kg oral", "value": "−42", "unit": "%"},
      {"measurement": "Number of cramps (mean ± SEM)", "setting": "celecoxib 20 mg/kg oral", "value": "18.1 ± 3.2"},
      {"measurement": "% variation of number of cramps", "setting": "celecoxib 50 mg/kg oral", "value": "−39", "unit": "%"},
      {"measurement": "Number of cramps (mean ± SEM)", "setting": "celecoxib 50 mg/kg oral", "value": "18.9 ± 2.2"},
      {"measurement": "% variation of number of cramps", "setting": "celecoxib 75 mg/kg oral", "value": "−72", "unit": "%"},
      {"measurement": "Number of cramps (mean ± SEM)", "setting": "celecoxib 75 mg/kg oral", "value": "8.6 ± 2.1"},
      {"measurement": "% variation of number of cramps", "setting": "celecoxib 150 mg/kg oral", "value": "−90", "unit": "%"},
      {"measurement": "Number of cramps (mean ± SEM)", "setting": "celecoxib 150 mg/kg oral", "value": "3.2 ± 1.0"}
    ]}
  ]
}
